Experimental data published in article PMC4785407, “Reduction Impairs the Antibacterial Activity but Benefits the LPS Neutralization Ability of Human Enteric Defensin 5” (Scientific Reports, 2016).
“Also recorded” adds a separate entry of the source. Peptide text beside a SMILES is read from it.

Experiments:
[1] = test system: E. coli ML35 (ATCC 43827) cells; experiment: Zeta potential determination; type: cell-based
Description: Samples were equilibrated at 25 °C for 2 min. Zeta potential was determined using the Zetasizer Nano ZS (Malvern Instruments, UK). A total of 6 measurements of 100 runs were carried out for each sample.

[2] = test system: E. coli ML35 (ATCC 43827) outer membrane; experiment: Outer membrane penetration (NPN uptake assay); type: cell-based; conditions: 6.25 μg/mL, 10 mM sodium phosphate buffer pH 7.4, 37 °C, 1 h; vs HD5OX
Description: Then, an aliquot of 10 μL of NPN (Sigma 104043) was added, resulting in a final concentration of 10 μM. After excitation at 350 nm, the fluorescent intensity was measured in the range from 380-450 nm at intervals of 2 nm using a Tecan Infinite […] microplate reader.

CC[C@H](C)[C@H](NC(=O)[C@H](CCC(=O)O)NC(=O)[C@H](CS)NC(=O)[C@@H](NC(=O)CNC(=O)[C@H](CO)NC(=O)[C@H](CC(C)C)NC(=O)[C@H](CO)NC(=O)[C@H](CCC(=O)O)NC(=O)[C@H](CCCNC(=N)N)NC(=O)[C@@H](NC(=O)[C@H](C)NC(=O)[C@H](CS)NC(=O)[C@H](CCCNC(=N)N)NC(=O)CNC(=O)[C@@H](NC(=O)[C@H](CCCNC(=N)N)NC(=O)[C@H](CS)NC(=O)[C@H](Cc1ccc(O)cc1)NC(=O)[C@H](CS)NC(=O)[C@@H](NC(=O)[C@H](C)N)[C@@H](C)O)[C@@H](C)O)[C@@H](C)O)C(C)C)C(=O)N[C@@H](CO)C(=O)NCC(=O)N[C@@H](CCCNC(=N)N)C(=O)N[C@@H](CC(C)C)C(=O)N[C@@H](Cc1ccc(O)cc1)C(=O)N[C@@H](CCCNC(=N)N)C(=O)N[C@@H](CC(C)C)C(=O)N[C@@H](CS)C(=O)N[C@@H](CS)C(=O)N[C@@H](CCCNC(=N)N)C(=O)O [HD5RED] (H-ATCYCRTGRCATRESLSGVCEISGRLYRLCCR-OH)
zeta potential of cells, compared with HD5OX ([1]; 12.5 and 50 μg/mL, peptide vs HD5OX): significantly less than that of cells treated with HD5OX; also recorded: less efficient in altering the bacterial surface charge than HD5OX
zeta potential of cells ([1]; E. coli ML35 cells, 10 mM sodium phosphate buffer pH 7.4, 1% TSB, 25 °C): approximately −37 mV
outer membrane destruction (NPN fluorescence intensity) [2]: destroys the outer membrane less effectively than HD5OX
